Assay results as given in patent EP0908457B1, “3-(1,2-benzisothiazol- and isoxazol-5-Y1)-2,4(1H,3H)-pyrimidinedione or thione and 3-(1,2-benzisothiazol- and isoxazol-5-y1)-4(3H)-pyrimidinone or thione herbicidal agents” (BASF AKTIENGESELLSCHAFT, priority 1997, dated 1999).

Experiments:
[1] = system: Sagittaria pygmaea, L.; assay: Preemergence weed control under flooded paddy conditions, SAGPY (Arrowhead (Pygmaea)); format: in vivo; details: flooded paddy; as to herbicidal effect rating, SAGPY: meaning of each grade not given here
[2] = system: Monochoria vaginalis, Presl.; assay: Preemergence weed control under flooded paddy conditions, MOOVA (Monochoria); format: in vivo; details: flooded paddy; as to herbicidal effect rating, MOOVA: meaning of each grade not given here
[3] = system: Echinochloa oryzoides (Ard.) Fritsch.; assay: Preemergence weed control under flooded paddy conditions, ECHORC (Watergrass (Calif.)); format: in vivo; details: flooded paddy; as to herbicidal effect rating, ECHORC: meaning of each grade not given here
[4] = system: Cyperus serotinus, Rottb.; assay: Preemergence weed control under flooded paddy conditions, CYPSE (Flatsedge); format: in vivo; as to herbicidal effect rating, CYPSE: meaning of each grade not given here
[5] = system: Cyperus iria; assay: Preemergence weed control under flooded paddy conditions, CYPIR (Rice Flatsedge); format: in vivo; details: flooded paddy; as to herbicidal effect rating, CYPIR: meaning of each grade not given here
[6] = system: Oryza sativa, (L.) Tebonnet; assay: Rice tolerance to post-transplant applications under flooded paddy conditions (Example 187), ORYSAT (Rice, Tebonnet); as to herbicidal effect rating ORYSAT: meaning of each grade not given here
[7] = Rate 0.0320 kg/ha, preemergence, rated 3-4 weeks after treatment
[8] = Rate 0.0620 kg/ha, preemergence, rated 3-4 weeks after treatment
[9] = Rate 0.1250 kg/ha, preemergence, rated 3-4 weeks after treatment
[10] = Rate 0.2500 kg/ha, preemergence, rated 3-4 weeks after treatment
[11] = Rate 0.5000 kg/ha, preemergence, rated 3-4 weeks after treatment
[12] = Rate 0.0320 kg/ha, preemergence, rated three to four weeks after treatment
[13] = Rate 0.0620 kg/ha, preemergence, rated three to four weeks after treatment
[14] = Rate 0.1250 kg/ha, preemergence, rated three to four weeks after treatment
[15] = Rate 0.2500 kg/ha, preemergence, rated three to four weeks after treatment
[16] = 0.0320 kg/ha, preemergence, rated three to four weeks after treatment
[17] = 0.0620 kg/ha, preemergence, rated three to four weeks after treatment
[18] = 0.1250 kg/ha, preemergence, rated three to four weeks after treatment
[19] = 0.2500 kg/ha, preemergence, rated three to four weeks after treatment
[20] = 0.1250 kg/ha, rated three to four weeks after treatment
[21] = 0.2500 kg/ha, rated three to four weeks after treatment
[22] = 0.0313 kg/ha, preemergence weeds, rated three to four weeks after treatment
[23] = 0.0625 kg/ha, preemergence weeds, rated three to four weeks after treatment
[24] = 0.1250 kg/ha, preemergence weeds, rated three to four weeks after treatment
[25] = 0.2500 kg/ha, preemergence weeds, rated three to four weeks after treatment

With `CC(C)S(=O)(=O)NC(=O)COc1ccccc1-c1nsc2ccc(-n3c(=O)cc(C(F)(F)F)n(C)c3=O)cc12` [Example 555, Acetamide, 2-{o-{5-[3,6-dihydro-3-methyl-2,6-dioxo-4-(trifluoromethyl)-1(2H)-pyrimidinyl)-1,2-benzisothiazol-3-yl}phenoxy}-N-(isopropylsulfonyl)-] the “herbicidal effect rating, SAGPY” value [1, 7] was 0.0, the “herbicidal effect rating, SAGPY” value [1, 8] was 0.0 and the “herbicidal effect rating, SAGPY” value [1, 9] was 2.0. For the same molecule, the “herbicidal effect rating, SAGPY” value [1, 10] was 7.0, the “herbicidal effect rating, SAGPY” value [1, 11] was 0.0 and the “herbicidal effect rating, MOOVA” value [2, 7] was 9.0. The “herbicidal effect rating, MOOVA” value [2, 8] was 9.0, the “herbicidal effect rating, MOOVA” value [2, 9] was 9.0 and the “herbicidal effect rating, MOOVA” value [2, 10] was 9.0. The “herbicidal effect rating, MOOVA” value [2, 11] was 9.0, the “herbicidal effect rating, ECHORC” value [3, 7] was 1.6 and the “herbicidal effect rating, ECHORC” value [3, 8] was 2.3. The “herbicidal effect rating, ECHORC” value [3, 9] was 4.6, the “herbicidal effect rating, ECHORC” value [3, 10] was 9.0 and the “herbicidal effect rating, ECHORC” value [3, 11] was 9.0. For the same molecule, the “herbicidal effect rating, CYPSE” value [4, 7] was 4.0, the “herbicidal effect rating, CYPSE” value [4, 8] was 6.0 and the “herbicidal effect rating, CYPSE” value [4, 9] was 8.0. The “herbicidal effect rating, CYPSE” value [4, 10] was 8.0, the “herbicidal effect rating, CYPSE” value [4, 11] was 9.0 and the “herbicidal effect rating, CYPIR” value [5, 7] was 4.0. The “herbicidal effect rating, CYPIR” value [5, 8] was 6.0, the “herbicidal effect rating, CYPIR” value [5, 9] was 9.0 and the “herbicidal effect rating, CYPIR” value [5, 10] was 9.0. The “herbicidal effect rating, CYPIR” value [5, 11] was 3.0, the “herbicidal effect rating ORYSAT” value ([6]; Rate 0.0320 kg/ha, rated 3-4 weeks after treatment) was 6.0 and the “herbicidal effect rating ORYSAT” value ([6]; Rate 0.0620 kg/ha, rated 3-4 weeks after treatment) was 6.0. For the same molecule, the “herbicidal effect rating ORYSAT” value ([6]; Rate 0.1250 kg/ha, rated 3-4 weeks after treatment) was 8.0, the “herbicidal effect rating ORYSAT” value ([6]; Rate 0.2500 kg/ha, rated 3-4 weeks after treatment) was 9.0 and the “herbicidal effect rating ORYSAT” value ([6]; Rate 0.5000 kg/ha, rated 3-4 weeks after treatment) was 3.0.
For `Cn1c(C(F)(F)F)cc(=O)n(-c2cc3c(CC#N)nsc3cc2F)c1=O` [Example 379, 1,2-Benzisothiazole-3-acetonitrile, 5-[3,6-dihydro-3-methyl-2,6-dioxo-4-(trifluoromethyl)-1(2H)-pyrimidinyl]-6-fluoro-], the “herbicidal effect rating, SAGPY” value [1, 12] was 3.5, the “herbicidal effect rating, SAGPY” value [1, 13] was 6.5 and the “herbicidal effect rating, SAGPY” value [1, 14] was 9.0. The “herbicidal effect rating, SAGPY” value [1, 15] was 9.0, the “herbicidal effect rating, MOOVA” value [2, 12] was 9.0 and the “herbicidal effect rating, MOOVA” value [2, 13] was 9.0. For the same molecule, the “herbicidal effect rating, MOOVA” value [2, 14] was 9.0, the “herbicidal effect rating, MOOVA” value [2, 15] was 9.0 and the “herbicidal effect rating, ECHORC” value [3, 12] was 2.0. For the same molecule, the “herbicidal effect rating, ECHORC” value [3, 13] was 5.0, the “herbicidal effect rating, ECHORC” value [3, 14] was 7.5 and the “herbicidal effect rating, ECHORC” value [3, 15] was 8.0. For the same molecule, the “herbicidal effect rating, CYPSE” value [4, 12] was 2.5, the “herbicidal effect rating, CYPSE” value [4, 13] was 6.5 and the “herbicidal effect rating, CYPSE” value [4, 14] was 8.5. The “herbicidal effect rating, CYPSE” value [4, 15] was 8.5, the “herbicidal effect rating, CYPIR” value [5, 12] was 5.5 and the “herbicidal effect rating, CYPIR” value [5, 13] was 7.5. For the same molecule, the “herbicidal effect rating, CYPIR” value [5, 14] was 9.0, the “herbicidal effect rating, CYPIR” value [5, 15] was 9.0 and the “herbicidal effect rating ORYSAT” value ([6]; Rate 0.0320 kg/ha, rated three to four weeks after treatment) was 7.0. For the same molecule, the “herbicidal effect rating ORYSAT” value ([6]; Rate 0.0620 kg/ha, rated three to four weeks after treatment) was 8.5, the “herbicidal effect rating ORYSAT” value ([6]; Rate 0.1250 kg/ha, rated three to four weeks after treatment) was 9.0 and the “herbicidal effect rating ORYSAT” value ([6]; Rate 0.2500 kg/ha, rated three to four weeks after treatment) was 9.0.
Molecule `Cn1c(C(F)(F)F)cc(=O)n(-c2ccc3snc(C(C)(C)C(=O)OCc4ccco4)c3c2)c1=O` [Example 487, 1,2-Benzisothiazole-3-acetic acid, 5-[3,6-dihydro-3-methyl-2,6-dioxo-4-(trifluoromethyl)-1(2H)-pyrimidinyl]-alpha,alpha-dimethyl-, furfuryl ester] has an SAGPY herbicidal rating [1, 16] of 4.0, an SAGPY herbicidal rating [1, 17] of 5.0 and an SAGPY herbicidal rating [1, 18] of 6.0. The SAGPY herbicidal rating [1, 19] was 7.0, the MOOVA herbicidal rating [2, 16] was 7.0 and the MOOVA herbicidal rating [2, 17] was 9.0. The MOOVA herbicidal rating [2, 18] was 9.0, the MOOVA herbicidal rating [2, 19] was 9.0 and the ECHORC herbicidal rating [3, 16] was 6.0. The ECHORC herbicidal rating [3, 17] was 7.0, the ECHORC herbicidal rating [3, 18] was 7.0 and the ECHORC herbicidal rating [3, 19] was 9.0. For the same molecule, the CYPSE herbicidal rating [4, 19] was 3.0, the CYPIR herbicidal rating [5, 16] was 4.0 and the CYPIR herbicidal rating [5, 17] was 5.0. The CYPIR herbicidal rating [5, 18] was 6.0, the CYPIR herbicidal rating [5, 19] was 9.0 and the “ORYSAT herbicidal rating (rice tolerance)” value (from here on “ORYSAT herbicidal rating”) ([6]; 0.0320 kg/ha, rated three to four weeks after treatment) was 2.0. For the same molecule, the “ORYSAT herbicidal rating” value ([6]; 0.0620 kg/ha, rated three to four weeks after treatment) was 3.0, the “ORYSAT herbicidal rating” value [6, 20] was 6.0 and the “ORYSAT herbicidal rating” value [6, 21] was 7.0.
With `C#CCNC(=O)COc1ccc(C)cc1-c1noc2ccc(-n3c(=O)cc(C(F)(F)F)n(C)c3=O)cc12` [Example 193, 2-{{2-{5-[3,6-Dihydro-3-methyl-2,6-dioxo-4-(trifluoromethyl)-1(2H)-pyrimidinyl]-1,2-benzisoxazol-3-yl}-p-tolyl}oxy}-N-(2-propynyl)acetamide] the “herbicidal effect rating, SAGPY” value [1, 22] was 0.0, the “herbicidal effect rating, SAGPY” value [1, 23] was 0.0 and the “herbicidal effect rating, SAGPY” value [1, 24] was 0.0. The “herbicidal effect rating, SAGPY” value [1, 25] was 0.0, the “herbicidal effect rating, MOOVA” value [2, 22] was 2.0 and the “herbicidal effect rating, MOOVA” value [2, 23] was 4.0. For the same molecule, the “herbicidal effect rating, MOOVA” value [2, 24] was 9.0, the “herbicidal effect rating, MOOVA” value [2, 25] was 9.0 and the “herbicidal effect rating, ECHORC” value [3, 22] was 0.0. The “herbicidal effect rating, ECHORC” value [3, 23] was 0.0, the “herbicidal effect rating, ECHORC” value [3, 24] was 0.0 and the “herbicidal effect rating, ECHORC” value [3, 25] was 0.0. For the same molecule, the “herbicidal effect rating, CYPSE” value [4, 22] was 0.0, the “herbicidal effect rating, CYPSE” value [4, 23] was 0.0 and the “herbicidal effect rating, CYPSE” value [4, 24] was 0.0. For the same molecule, the “herbicidal effect rating, CYPSE” value [4, 25] was 0.0, the “herbicidal effect rating, CYPIR” value [5, 22] was 0.0 and the “herbicidal effect rating, CYPIR” value [5, 23] was 0.0. For the same molecule, the “herbicidal effect rating, CYPIR” value [5, 24] was 0.0, the “herbicidal effect rating, CYPIR” value [5, 25] was 0.0 and the “herbicidal effect rating, ORYSAT (rice tolerance)” value (“herbicidal effect rating, ORYSAT” for short) ([6]; 0.0313 kg/ha, rated three to four weeks after treatment) was 0.0. The “herbicidal effect rating, ORYSAT” value ([6]; 0.0625 kg/ha, rated three to four weeks after treatment) was 0.0, the “herbicidal effect rating, ORYSAT” value [6, 20] was 0.0 and the “herbicidal effect rating, ORYSAT” value [6, 21] was 1.0.
